# Assay results from PMC7594079, “Insights into the Function and Evolution of Taste 1 Receptor Gene Family in the Carnivore Fish Gilthead Seabream (Sparus aurata)” (International Journal of Molecular Sciences, 2020).
# Assays:
# [1] = system: saT1R1/R1; settings: cells transfected with saT1R1 alone (double amount)
# Source text: (§1) Previous studies have reported that heterodimeric coupling of saT1R complexes may not be the only mode of functional activation since these subunits, especially T1R3, can also couple as homodimers.
# (§2) Figure 8 Comparisons of proline Log-dose response curves of activation in heterologous transfections of hetero- and homo-dimeric saT1R combinations of saT1R1/R3 (black dots), saT1R2a/R3 (white dots), saT1R2b/3 (black triangles), saT1R1/R1 (white triangles) and saT1R3/R3 (black squares). Response is measured as RLU mean ± SEM of four independent determinations normalized to the mean response of the same transfections stimulated with reduced assay medium (BME + 1% FBS), expressed as percentage relative to basal levels (BL).
# (§3) saT1Rs (saT1R1, saT1R2a, saT1R2b saT1R3) and saGαi1-2 genes were RT-PCR amplified using 5’ and 3’ flanking primers carrying HindIII and XhoI restriction sites, respectively. Gel-purified fragments were cloned into pGEM-T Easy vectors, re-sequenced, digested and subcloned into pcDNA™3 (Invitrogen, Carlsbad, CA, USA). Effective saT1R cloning into pcDNA™3 was further verified by HindIII/XhoI digestion. […]
# [2] = system: saT1R3/R3; settings: cells transfected with saT1R3 alone (double amount)
# Source text: as §1, §2, §3
compound,measurement,setting,value
"O=C(O)[C@@H]1CCCN1 [Pro, Proline]",response to Pro stimulation,[1],did not respond
same,response to Pro stimulation,[2],did not respond
